Assay results reported in patent publication US9057106B2, “Method of determination of diagnosis and prognosis in patients with B-cell chronic lymphocytic leukemia and oligonucleotides for use in this method” (MASARYKOVA UNIVERZITA, priority 2009, dated 2015).
Entries after “also recorded” stand apart in the source; their conditions may differ.

Test system: CLL cells
Test: Transwell migration assay of CLL cells in chemokine gradient
Type: cell-based, human
Source text: 2006 Nov. 1; 108(9):3143-51; Richardson S J, Matthews C, Catherwood M A, Alexander H D, Carey B S, Farrugia J, Gardiner A, Mould S, Oscier D, Copplestone J A, Prentice A G: ZAP-70 expression is associated with enhanced ability to respond to migratory and survival signals in B-cell chronic lymphocytic leukemia (CLL). Blood. 2006 May 1; 107(9):3584-92). […] CK1ε is the key component of the Wnt/PCP pathway and its quantity in the patients suffering from CLL is increased. As we show in FIG. 5B, the inhibition of CK1ε blocks the effects of Wnt5a on cell migration in the chemokine gradient. […] The extent of the migration of CLL cells in chemokine gradient after Wnt5a stimulation may be determined by the following procedure and used for the determination of the migration capacity of CLL cells that correlates closely with the infiltration of lymphatic organs and the agressiveness of the disease (Till K J, Lin K, Zuzel M., Cawley J C. The chemokine receptor CCR7 and a4 integrin are important for migration of chronic lymphocytic leukemia cells into lymph nodes. Blood. 2002 99: 2977-2984).
CLL cells were isolated by the identical procedure as in Example 6. After isolation the cells were transferred to tissue culture and subjected to Transwell assay. 96 well plates were used for the experiments (Corning, HTS Transwell®-96 Permeable Support with 5.0 μm Pore Polycarbonate Membrane). These plates consist of a bottom part including the wells and a top part that includes the inserts, the bottom of which is formed by the membrane of a defined size of pores. Each sample was measured in triplicate. The wells in the bottom part of the plate always included 0.235 ml of the medium (RPMI 1640, 0.1% FBS, 1% Penicillin Streptomycin, 1% L-glutamine) and further the required concentration of the chemokine or solvent (0.1% BSA in PBS). […] After the cultivation the inserts were removed from the transwell plate, trypsin was added to each well (100 μl) and after 5 minutes of its activity the number of the cells that migrated through the membrane were counted in each well. […]

NC(=O)c1ccc(-c2nc(-c3ccc4c(c3)OCCO4)c(-c3ccccn3)[nH]2)cc1 [D4476, reference compound]
effect of CK1 inhibition on Wnt5a-induced migration of CLL cells in the chemokine gradient (CK1 inhibitor D4476 100 uM, with Wnt5a and chemokine): blocks migration

CXCL12: chemokine CXCL12
migration of CLL cells (substance itself (alone), 20 hours, recombinant Wnt5a 200 ng/ml): influences positively the migration of CLL cells

B1: Wnt5a: recombinant Wnt5a, secreted ligand of the Wnt/PCP pathway (protein, UniProt P41221 62-380, looked up)
Protein Wnt-5a: IIGAQPLCSQLAGLSQGQKKLCHLYQDHMQYIGEGAKTGIKECQYQFRHRRWNCSTVDNTSVFGRVMQIGSRETAFTYAVSAAGVVNAMSRACREGELSTCGCSRAARPKDLPRDWLWGGCGDNIDYGYRFAKEFVDARERERIHAKGSYESARILMNLHNNEAGRRTVYNLADVACKCHGVSGSCSLKTCWLQLADFRKVGDALKEKYDSAAAMRLNSRGKLVQVNSRFNSPTTQDLVYIDPSPDYCVRNESTGSLGTQGRLCNKTSEGMDGCELMCCGRGYDQFKTVQTERCHCKFHWCCYVKCKKCTEIVDQFVCK
migration of CLL cells in the presence of the chemokine CXCL12 (combination of CXCL12 and recombinant Wnt5a (200 ng/ml), 20 hours): positively affect the migration of CLL cells; also recorded: significantly increased the migration of CLL
